Laboratory results taken from US11519913B2, “Metabolic disorder target” (University of Pittsburgh—Of the Commonwealth System of …, priority 2016, dated 2022).

Tested on: kinases
Experiment: Streamlined CETSA / dMS workflow with staurosporine
Format: binding
Conditions: staurosporine treated vs untreated samples
From the text: Initial experiments were designed to employ the ATP inhibitor staurosporine. Staurosporine is well documented as binding several different kinases, and so offers an a priori known binding event for study and method workup. The workflow for CETSA was streamlined. These improvements are based on two advantages: the use of factory made long heated columns for excellent chromatographic, and therefore sample to sample reproducibility, and the cloud computing platform, Chorus, which allows for the alignment and quantification of hundreds of thousands of mass spectrometric signals without the need to first identify said signals, see U.S. Pat. No. 6,906,320 “Mass Spectrometry Data Analysis Techniques,” incorporated herein by reference.
In the staurosporine analysis, the dMS workflow detected 270,822 features that were associated with 108,594 isotope groups. […] An important and distinguishing feature of the dMS workflow is that results are ranked on the basis of the quantitative data, and significant features may then be identified directly by reanalysis of the sample and acquisition of a MS2 spectrum with a retention time and m/z that matches the features of interest. This quantify first, identify second strategy greatly enhances the depth and precision of proteomic analysis compared to workflows that emphasize peptide identification rates. […]

SMILES: CN[C@@H]1C[C@H]2O[C@@](C)([C@@H]1OC)n1c3ccccc3c3c4c(c5c6ccccc6n2c5c31)C(=O)NC4 [staurosporine]
- Features at significance lower than p<0.0001, drug treated versus vehicle, that belong to kinases: 13 out of 16 belonged to kinases
